Assay results taken from US11701389B2, “Methods of preserving mesenchymal stem cells” (Emory University, priority 2016, dated 2023).
Where a SMILES comes first, the peptide text is derived from it. The star is where a group is joined. Cbz = O=C(OCc1ccccc1)*; CH2F = FC*

Tested on: T cell proliferation in SEB activated PBMCs
Experiment: MSC and PBMC coculture, Ki67 T cell proliferation assay
Format: cell-based, human
Settings: for inhibition of T cell proliferation by frozen-thawed MSCs pretreated with inhibitor prior to cryopreservation: Z-VAD-FMK 50 uM or 3-Methyl Adenine 1 mM pretreatment, FIG. 5A, 5B

Structure (SMILES)	inhibition of T cell proliferation by frozen-thawed MSCs pretreated with inhibitor prior to cryopreservation	effect of IDO blocking on suppression of T-cell proliferation by IFNgamma Cryo MSCs (1 mM added to coculture, FIG. 5F)
COC(=O)C[C@H](NC(=O)[C@H](C)NC(=O)[C@@H](NC(=O)OCc1ccccc1)C(C)C)C(=O)CF [Z-VAD-FMK] (Cbz-Val-Ala-Asp(OMe)-CH2F)	defective in inhibiting T cell proliferation	
Cn1cc(C[C@H](N)C(=O)O)c2ccccc21 (racemic) [1-Methyl Tryptophan]		negates the suppressive effect
Cn1cnc(N)c2ncnc1-2 [3-Methyl Adenine]	defective in inhibiting T cell proliferation	
